A word on the IC50: it is the concentration that inhibits the measured activity by half. As a reminder, the EC50 is the concentration needed to bring the measured effect to its halfway point. As usually defined, the CC50 is the concentration giving 50% cytotoxicity. Usually pEC50 stands for the negative decadic logarithm of the EC50, by convention in mol/L. One may read the pIC50 as −log10 of the IC50, conventionally taken in molar units.

The results in this text go back to ChEMBL document CHEMBL5233255, “Natural and nature-inspired stilbenoids as antiviral agents” (Eur J Med Chem, 2020).

pEC50, pIC50: −log10 of the molar value. Converted amounts (≈) assume the structure as drawn.

A short description of data set [1]: Selectivity index, ratio of CC50 for cytotoxicity against MDCK cells to IC50 for influenza A virus A/Guangdong/243/72 ([…]) infected in MDCK cells. In kind it is toxicity, cell-based. The following applies: dog, read-out: Ratio CC50/IC50.
The test system of data set [2] is Influenza A virus. The data set is described as follows: Antiviral activity against influenza A virus A/Guangdong/243/72 ([…]) infected in MDCK cells assessed as inhibition of virus-induced cytopathic effect. In kind it is functional, organism-based.
Data set [3] is described as follows: Therapeutic index, ratio of CC50 for cytotoxicity against human C8166 cells to EC50 for antiviral activity against HIV-1 infected in C8166 cells. Format: toxicity, cell-based. The following applies: read-out: Ratio CC50/EC50.
The subject of data set [4] is Human immunodeficiency virus 1. The data set is described as follows: Antiviral activity against HIV-1 infected in human C8166 cells assessed as inhibition of viral replication. Format: functional, organism-based. Particulars: Human immunodeficiency virus 1, C8166.
Data set [5] can be described thus: Cytotoxicity against human C8166 cells assessed as inhibition of cell growth by MTT assay. In kind it is toxicity, cell-based.
Data set [6] is described as follows: Cytotoxicity against HCV RNA-transfected human Huh7.5 cells assessed as reduction in cell viability. In kind it is toxicity, cell-based, Huh-7.5. Particulars: HCV RNA-transfected Huh7.5 cells.
Data set [7] relates to Hepatitis C virus. Briefly: Antiviral activity against Hepatitis C virus genotype 1 infected in Bart79I RNA-transfected human Huh7.5 cells assessed as reduction in viral replication incubated for 24 to 72 hrs by RT-PCR assay. In kind it is functional, organism-based, Hepacivirus hominis. The following applies: genotype 1, Huh7.5.
Data set [8] concerns Hepatitis C virus. The data set is described as follows: Antiviral activity against Hepatitis C virus genotype 2 infected in human Huh7.5 cells assessed as reduction in viral replication by RT-PCR assay. In kind it is functional, organism-based, Hepacivirus hominis. Particulars: genotype 2, Huh7.5.
Data set [9] relates to Hepatitis C virus. The data set is described as follows: Antiviral activity against Hepatitis C virus genotype 2 infected in renilla luciferase-J6/JFH1 RNA-transfected human Huh7.5 cells assessed as reduction in viral replication incubated for 72 hrs by qRT-PCR analysis. In kind it is functional, organism-based, Hepacivirus hominis. Particulars: genotype 2, Huh7.5, 72 h. On the technique in general: Real-time PCR tracks product formation cycle by cycle.

Data set [10] is described as follows: Inhibition of HIV-1 integrase catalysed 3' processing activity by densitometric analysis. More on the design: species or system Human immunodeficiency virus 1.
Data set [11] in a line: Cytotoxicity against human MT4 cells expressing eGFP under control of HIV-1 LTR promoter sequence. In kind it is toxicity, cell-based.
Data set [12] in a line: Selectivity index, ratio of CC50 for cytotoxicity against human MT4 cells expressing eGFP under control of HIV-1 LTR promoter sequence to EC50 for antiviral activity against HIV-1 infected in human MT4 cells expressing eGFP under control of HIV-1 LTR promoter sequence. Format: toxicity, cell-based. The following applies: read-out: Ratio CC50/EC50.
Data set [13] has as its system Human immunodeficiency virus 1. Briefly: Antiviral activity against VSV pseudo-typed HIV-1 infected in human MT4 cells expressing eGFP under control of HIV-1 LTR promoter sequence. Particulars: Human immunodeficiency virus 1, MT4. In kind it is functional, organism-based.
The nature of data set [14]: Inhibition of recombinant HIV-1 integrase catalysed strand transfer activity measured after 60 mins by electrochemiluminescent plate-based assay. More on the design: species or system Human immunodeficiency virus 1.
Data set [15] can be described thus: Cytotoxicity against human Huh7.5 cells infected with Hepatitis C virus assessed as reduction in cell viability. In kind it is toxicity, cell-based, Huh-7.5.
Data set [16] deals with Hepatitis C virus. The data set is described as follows: Antiviral activity against Hepatitis C virus infected in human Huh7.5 cells assessed as reduction in viral replication. In kind it is functional, organism-based, Hepacivirus hominis.
Data set [17] deals with Human alphaherpesvirus 1. The data set is described as follows: Antiviral activity against HSV-1 clinical isolate infected in African green monkey Vero cells incubated for 3 days by plaque reduction assay. In kind it is functional, organism-based. Particulars: Human alphaherpesvirus 1, Vero, 72 h. (In general: Plaque reduction counts the foci of infection that form in a cell layer.)

The test system of data set [18] is Human alphaherpesvirus 2. Briefly: Antiviral activity against HSV-2 333 infected in African green monkey Vero cells incubated for 3 days by plaque reduction assay. Format: functional, organism-based. The following applies: Human alphaherpesvirus 2, 333, Vero, 72 h.
For data set [19], the system named is Human alphaherpesvirus 1. Briefly: Antiviral activity against HSV-1 15577 infected in African green monkey Vero cells incubated for 3 days by plaque reduction assay. Format: functional, organism-based. Particulars: Human alphaherpesvirus 1, 15577, Vero, 72 h.
In data set [20] the test system is Influenza A virus. Briefly: Antiviral activity against influenza A virus A/PR/8/34 (H1N1) infected in human A549 cells assessed as inhibition of RANTES production incubated for 48 hrs by ELISA. Format: functional, organism-based. Particulars: A549, 48 h. (In general: In an ELISA, binding on a coated surface is turned into a signal by an enzyme label.)
A short description of data set [21]: Cytotoxicity against human A549 cells assessed as reduction in cell viability by Alamar blue assay. In kind it is toxicity, cell-based.
Data set [22] deals with Human immunodeficiency virus 1. Briefly: Antiviral activity against HIV-1 infected in HEK293T cells. Format: functional, organism-based. Particulars: Human immunodeficiency virus 1, HEK-293T.

Regarding `COc1cc([C@H]2Oc3c(ccc(/C=C/c4cc(O)cc(O)c4)c3OC)[C@@H]2c2cc(O)cc(O)c2)ccc1O`, in data set [1], the selectivity ratio was 9.6. The IC50 in data set [2] is 12 µg/mL (≈ 23.3 µM).

For `OC[C@H]1O[C@@H](Oc2cc(O)cc(/C=C/c3ccc(O)cc3)c2O[C@@H]2O[C@H](CO)[C@@H](O)[C@H](O)[C@H]2O)[C@H](O)[C@@H](O)[C@@H]1O`, the selectivity ratio in data set [3] was more than 1.13. Further, in data set [4], the EC50 worked out at 176 µg/mL (≈ 310 µM). Besides, the CC50 in data set [5] was more than 200 µg/mL.

Take `O=S(=O)([O-])O[C@H]1[C@H](Oc2cc(O)cc(/C=C/c3ccc(O)cc3)c2)O[C@H](CO)[C@@H](O)[C@@H]1O.[Na+]`: the selectivity ratio in data set [3] was more than 13. The EC50 in data set [4] is 153 µg/mL. Moreover, in data set [5], the cytotoxic concentration (CC50) was more than 2000 µg/mL.

As to `CC(=O)Oc1ccc(/C=C/c2cc(OC(C)=O)cc3c2C(c2cc(OC(C)=O)cc(OC(C)=O)c2)C(c2ccc(OC(C)=O)cc2)O3)cc1` (centres undefined), the CC50 in [6] was more than 10 µM. In addition, the values for the pEC50 in [7], in [8] and in [9] were 4.98, 5.33 and 5.63, respectively.

Take `Nc1ccc(/N=N/c2ccc(/C=C/c3ccc(/N=N/c4ccc(N)c5ccc(S(=O)(=O)O)cc45)cc3S(=O)(=O)O)c(S(=O)(=O)O)c2)c2ccc(S(=O)(=O)O)cc12`: the pIC50 in data set [10] and in data set [14] was 5.49 throughout. In [11], this compound displayed a CC50 of more than 100 µM. In addition, in [12], the selectivity ratio was more than 6.5. The pEC50 in data set [13] is 4.82.

`Oc1ccc([C@@H]2c3c(O)cc(O)cc3[C@H]3c4c(cc(O)cc4[C@@H]2O)O[C@@H]3c2ccc(O)cc2)cc1`: in data set [15], the CC50 was more than 10 µM. Further, the pEC50 in data set [16] was 5.24.

In the case of `OC[C@H]1O[C@@H](Oc2cc(O)cc(-c3cc4ccc(O)cc4o3)c2)[C@H](O)[C@@H](O)[C@@H]1O`, the IC50 in data set [17], in data set [18] and in data set [19] was 2.5 µg/mL (≈ 6.18 µM) each time.

For `Oc1ccc([C@@H]2c3c(O)cc(O)cc3[C@@H]3c4c(cc(O)c5c4[C@@H]2[C@H](c2ccc(O)cc2)[C@H]5c2cc(O)cc(O)c2)O[C@H]3c2ccc(O)cc2)cc1`, in data set [20], the pEC50 is 6.24. For the same compound, in data set [21], the CC50 was more than 1000 µM.

With `O=S(=O)([O-])OC[C@H]1O[C@@H](Oc2cc(O)cc(/C=C/c3ccc(O)cc3)c2)[C@H](O)[C@@H](O)[C@@H]1O.[Na+]`, the selectivity ratio in data set [3] is less than 3.73. In addition, in [4], the EC50 was more than 200 µg/mL. In addition, in data set [5], the CC50 amounted to 746 µg/mL.

For the compound `Oc1ccc(/C=C/c2cc(O)cc3c2[C@@H](c2cc(O)cc4c2[C@H](c2cc(O)cc5c2[C@@H](c2cc(O)cc(O)c2)[C@H](c2ccc(O)cc2)O5)[C@@H](c2ccc(O)cc2)O4)[C@H](c2ccc(O)cc2)O3)cc1`, the CC50 in [21] was found to be 8.4 µM.

Regarding `CCOc1ccc(/N=N/c2ccc(/C=C/c3ccc(/N=N/c4ccc(OCC)cc4)cc3S(=O)(=O)O)c(S(=O)(=O)O)c2)cc1`, the pIC50 was 5.96 in data set [10] and 6.30 in [14]. The CC50 in [11] is more than 100 µM. Further, the selectivity ratio in data set [12] is more than 166. In data set [13], this compound showed a pEC50 of 6.22.

On to `O=S(=O)([O-])O[C@H]1[C@H](O)[C@@H](O)[C@H](Oc2cc(O)cc(/C=C/c3ccc(O)cc3)c2)O[C@@H]1CO.[Na+]`, for which the selectivity ratio in data set [3] was less than 4.06. For the same compound, the EC50 in data set [4] is more than 200 µg/mL. The cytotoxic concentration (CC50) in data set [5] was 813 µg/mL.

Take `O=S(=O)([O-])Oc1ccc(/C=C/c2cc(O)cc(O[C@@H]3O[C@H](CO)[C@@H](O)[C@H](O)[C@H]3O)c2)cc1.[Na+]`: the EC50 in data set [4] is more than 200 µg/mL. Also, the CC50 in [5] was more than 2000 µg/mL.

Consider `Oc1ccc(-c2ccc(-c3cc(O)cc(O)c3)[nH]2)cc1`, for which the pEC50 in data set [22] was less than 4.12.

For `Oc1ccc(/C=C/c2cc(O)cc3c2C(c2cc(O)cc(O)c2)C(c2ccc(O)cc2)O3)cc1` (racemic), the CC50 in [6] was more than 10 µM. Besides, the pEC50 in data set [7] is 5.77; in [8] it was 5.03; in [9], 6.70.

With `CC(C)=CCc1c(O)cc(-c2cc3ccc(O)cc3o2)cc1O` [MORACIN C], the IC50 in [17], in [18] and in [19] was 2.5 µg/mL (≈ 8.06 µM) each time.

With `Oc1cc(O)cc(-c2cc3ccc(O)cc3o2)c1` [MORACIN M], the IC50 in data set [17], in data set [18] and in data set [19] was 2.5 µg/mL (≈ 10.3 µM) throughout.

Take `CC1=C[C@@H](c2c(O)cc(-c3cc4ccc(O)cc4o3)cc2O)[C@@H](C(=O)c2ccc(O)cc2O)[C@H](c2ccc(O)cc2O)C1` [MULBERROFURAN C]: the IC50 in data set [17], in [18] and in data set [19] was 2.5 µg/mL (≈ 4.31 µM) throughout.

Turning to `OC[C@H]1O[C@@H](Oc2cc(O)cc(/C=C/c3ccc(O)cc3)c2)[C@H](O)[C@@H](O)[C@@H]1O` [PICEID], in data set [4], the EC50 was more than 200 µg/mL. Moreover, in [5], the CC50 was more than 200 µg/mL.

Regarding `NC(=O)c1ncn([C@@H]2O[C@H](CO)[C@@H](O)[C@H]2O)n1` [RIBAVIRIN], the IC50 in data set [2] was 5.54 µg/mL (≈ 22.7 µM).

Regarding `Oc1ccc([C@H]2c3c(O)cc(O)cc3[C@H]3c4c(cc(O)cc4[C@@H]2c2cc(/C=C/c4cc(O)cc5c4[C@H](c4cc(O)cc(O)c4)[C@@H](c4ccc(O)cc4)O5)ccc2O)O[C@@H]3c2ccc(O)cc2)cc1` [VITISIN A], the CC50 was more than 10 µM in data set [15] and 22.4 µM in data set [21]. In addition, the pEC50 is 6.57 in data set [20] and 7.46 in data set [16].
